Assay results as given in BindingDB's records for patent US20240299360 (Jiangsu Hengrui Pharmaceuticals, 2024).
Several values for one entry are separate records, joined by “and”; a condition that tells them apart may be missing. Equal values may be shown once.

Tests used:
[1] = molecular target: T1, A disintegrin and metalloproteinase with thrombospondin motifs 4 (Homo sapiens, UniProt O75173); assay: In Vitro Fluorescence Assay of ADAMTS-4 or ADAMTS-5 Activity
T1 sequence (O75173 whole entry): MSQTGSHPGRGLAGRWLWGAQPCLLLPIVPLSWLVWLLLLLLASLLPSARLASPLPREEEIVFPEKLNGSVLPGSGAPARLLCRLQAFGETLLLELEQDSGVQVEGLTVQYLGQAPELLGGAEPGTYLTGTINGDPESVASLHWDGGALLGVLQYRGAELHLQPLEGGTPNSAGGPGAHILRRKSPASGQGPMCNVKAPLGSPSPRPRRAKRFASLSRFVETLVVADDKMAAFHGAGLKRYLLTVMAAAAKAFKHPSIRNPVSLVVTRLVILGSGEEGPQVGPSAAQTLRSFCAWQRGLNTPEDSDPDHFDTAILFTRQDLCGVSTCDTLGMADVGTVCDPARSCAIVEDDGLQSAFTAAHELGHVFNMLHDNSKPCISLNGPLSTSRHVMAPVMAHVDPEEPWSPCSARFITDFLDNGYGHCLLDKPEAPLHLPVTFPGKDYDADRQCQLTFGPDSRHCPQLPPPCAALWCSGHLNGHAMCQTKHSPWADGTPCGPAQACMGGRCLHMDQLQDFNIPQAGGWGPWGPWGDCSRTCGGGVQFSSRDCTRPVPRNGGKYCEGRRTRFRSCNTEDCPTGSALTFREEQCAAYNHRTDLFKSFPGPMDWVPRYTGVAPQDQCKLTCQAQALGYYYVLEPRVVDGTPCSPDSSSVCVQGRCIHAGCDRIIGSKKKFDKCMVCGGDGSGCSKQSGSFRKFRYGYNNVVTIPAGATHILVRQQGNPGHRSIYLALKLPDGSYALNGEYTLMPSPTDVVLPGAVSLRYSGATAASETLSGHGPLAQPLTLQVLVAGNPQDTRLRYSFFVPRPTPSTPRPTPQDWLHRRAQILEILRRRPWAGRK
Procedure: Table 1: A FRET (fluorescence resonance energy transfer) peptide was cleaved by recombinant ADAMTS-4 or ADAMTS-5 proteins into two separate fragments resulting in an increase of fluorescence signal which was quantified. The peptide was 5-FAM-TEGEARGSVILLK(5-TAMRA)K-NH2, customized from ANASPEC. ADAMTS-4 recombinant protein (catalog #4307-AD) and ADAMTS-5 recombinant protein (catalog #2198-AD) were purchased from R&D Systems. An assay buffer containing 50 mM HEPES pH 7.5, 100 mM NaCl, 5 mM CaCl2, 0.1% CHAPS and 5% Glycerol was prepared. A volume of 2.5 μl of compound in the assay buffer was dispensed to a 384-well plate, and 2.5 μl of ADAMTS-4 or ADAMTS-5 protein (final concentration in the reaction was 10 nM) was added. The compounds and proteins were pre-incubated at room temperature for 15 minutes. Then, 5 μl of substrate was added to each well. The final substrate concentrations for ADAMTS-4 and ADAMTS-5 were 15 μM and 8 μM, respectively. The fluorescence signal in each well was determined, after incubation at 37° C. for 3 hours, on a TECAN plate reader (Excitation, 490 nm; Emission, 520 nm).

[2] = molecular target: T2, A disintegrin and metalloproteinase with thrombospondin motifs 5 (Homo sapiens, UniProt Q9UNA0); assay: In Vitro ELISA (Enzyme-Linked Immunosorbent Assay) of ADAMTS-5 Activity
T2 sequence (Q9UNA0 whole entry): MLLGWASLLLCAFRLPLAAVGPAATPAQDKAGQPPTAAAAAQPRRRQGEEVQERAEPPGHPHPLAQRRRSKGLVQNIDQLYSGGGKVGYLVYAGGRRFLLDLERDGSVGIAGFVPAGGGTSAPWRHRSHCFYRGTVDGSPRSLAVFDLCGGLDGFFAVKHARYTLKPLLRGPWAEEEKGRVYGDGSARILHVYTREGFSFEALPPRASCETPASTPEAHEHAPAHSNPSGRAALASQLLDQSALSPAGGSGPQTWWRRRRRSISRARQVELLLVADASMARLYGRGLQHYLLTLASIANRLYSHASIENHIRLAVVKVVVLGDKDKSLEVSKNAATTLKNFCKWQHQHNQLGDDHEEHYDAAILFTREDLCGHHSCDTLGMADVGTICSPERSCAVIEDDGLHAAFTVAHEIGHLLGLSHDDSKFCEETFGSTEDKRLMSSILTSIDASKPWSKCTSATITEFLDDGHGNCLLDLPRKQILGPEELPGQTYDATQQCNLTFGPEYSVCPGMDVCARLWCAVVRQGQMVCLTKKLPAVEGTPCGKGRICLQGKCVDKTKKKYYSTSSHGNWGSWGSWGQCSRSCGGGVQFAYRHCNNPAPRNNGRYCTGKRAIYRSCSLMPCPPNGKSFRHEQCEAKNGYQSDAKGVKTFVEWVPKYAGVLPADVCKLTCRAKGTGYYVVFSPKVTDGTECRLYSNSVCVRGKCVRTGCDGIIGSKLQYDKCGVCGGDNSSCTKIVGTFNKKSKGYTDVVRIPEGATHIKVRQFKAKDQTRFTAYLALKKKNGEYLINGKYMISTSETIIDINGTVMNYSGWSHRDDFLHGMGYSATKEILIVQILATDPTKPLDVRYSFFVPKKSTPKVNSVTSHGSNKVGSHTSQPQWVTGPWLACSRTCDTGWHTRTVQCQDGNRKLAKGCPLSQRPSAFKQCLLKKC
Procedure: Table 2: In this assay, the enzymatic activity of recombinant ADAMTS-5 protein (catalog #2198-AD, R&D Systems) was assayed with a protein substrate, the aggrecan IGD protein. The aggrecan IGD protein is a polypeptide connecting human aggrecan globular domains 1 and 2 (T331-G458) expressed in E. Coli with a C-terminal His-tag (catalog #30411000, BIOTEZ). The enzymatic product ARGSVIL-peptide was detected using an ELISA kit from BioTEZ (catalog #30510111). An assay buffer containing 50 mM HEPES pH 7.5, 100 mM NaCl, 5 mM CaCl2), 0.1% CHAPS and 5% Glycerol was prepared. Recombinant ADAMTS-5 protein was diluted to 0.3 nM in the assay buffer. […] and 10 μl of compound solution was transferred to each well of a 96-well plate and incubated at room temperature for 15 minutes. Substrate aggrecan-IGD was diluted to 100 nM with the assay buffer and 20 μl was added to each well. The plate was incubated at 37° C. for 45 minutes. After incubation, the newly generated epitope ARGSVIL-peptides were measured using the Aggrecanase Activity ELISA Assay Kit following the manufacturer's instructions. Then, 100 μl of stop solution was added and the absorbance of each well was read at 450 nm, using […] as reference on a TECAN plate reader.

IC50 [1]: 20 nM
IC50 [2]: 26 nM and 83 nM
Structure (SMILES): CC(C[C@@]1(C2CC2)NC(=O)NC1=O)C(=O)N1Cc2cc(Cl)c(Cl)cc2C1C (some centres not stated) [US20240299360, Example 70]
